The results in this text go back to patent US4746648A, “Peptide derivatives which inhibit renin and acid proteases” (Sanofi; Institut National de la Recherche Medicale, priority 1985, dated 1988).

Starred links: 1 amine or outer side, 2 acyl side, 3 side chain; linkers in the order of their positions; H or OH if unused. Non-standard residues stand in square brackets, D forms with d. Residues, ends and D or L forms follow the SMILES beside them. ξ: configuration not given here. *: point of attachment. X9 = CCn1cnc(C[C@H](N[*:1])C(=O)[*:2])c1; His(τ-Me) = Cn1cnc(C[C@H](N)C(=O)O)c1; Sta = CC(C)C[C@H](N)[C@@H](O)CC(=O)O; X10 = Cc1nc(C(N[*:1])C(=O)[*:2])cs1; Gly(cPent) = N[C@H](C(=O)O)C1CCCC1; Phg = N[C@H](C(=O)O)c1ccccc1; ξ3Pal = NC(Cc1cccnc1)C(=O)O; ξ4Pal = NC(Cc1ccncc1)C(=O)O; Isovaleryl = CC(C)CC(=O)*; Boc = CC(C)(C)OC(=O)*; OBn = c1ccc(CO*)cc1; X4 = c1ccc(C*)nc1; tBu = CC(C)(C)*

The target in the first experiment is T1, human plasma renin activity (PRA) (Homo sapiens, UniProt P00797).
T1 construct: from tissue; host or cells: human plasma pool
T1 sequence (P00797 67-406): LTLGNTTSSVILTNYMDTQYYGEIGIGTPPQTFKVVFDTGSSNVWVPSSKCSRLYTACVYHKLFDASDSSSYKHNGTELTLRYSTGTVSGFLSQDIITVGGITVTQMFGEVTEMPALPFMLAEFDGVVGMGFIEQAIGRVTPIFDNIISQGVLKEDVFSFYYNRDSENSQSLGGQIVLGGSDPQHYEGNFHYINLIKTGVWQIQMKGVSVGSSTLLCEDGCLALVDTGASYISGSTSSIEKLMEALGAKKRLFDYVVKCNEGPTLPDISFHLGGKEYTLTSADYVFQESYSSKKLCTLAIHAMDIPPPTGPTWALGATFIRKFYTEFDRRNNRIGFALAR
Briefly: Inhibition of human plasma renin activity (PRA) in vitro, angiotensin I released measured by radioimmunoassay. The experiment is classed as biochemical. As to conditions: human plasma pool rich in renin, 60 min at 37° C., phosphate buffer pH 7.4; -log IC50. The procedure:
Human plasma contains the substrate angiotensinogen and the enzyme renin. […] An inhibitor of the conversion enzyme, phenylmethylsulfonyl fluoride (PMSF), is added to the incubation medium.
420 microliters of human plasma
11 to 50 microliters of the product to be studied, at variable concentrations
A solution of acetic acid in methanol (19/1 by volume) and a solution of sodium hydroxide in methanol (2/1 by volume) are prepared. In a mixture of equal volumes of these 2 solutions, a 0.001M stock solution of the peptide is prepared. The subsequent dilutions of the peptide are then made up in the phosphate buffer.
The results are expressed by their logarithmic value (-log IC50).
Take “Boc--Phe--(1-methylimidazol-2-yl)Ala--AHPPA--Ala--Sta--OCH3 [SR 43428]”: the “Inhibition of human PRA -log IC50 M pH 7.4” value is recorded as 6.16 -log M.

As for “Boc-Phe-(Pyr-2)Ala-Sta-Leu-Phe-OMe [SR 43150]”, the “Inhibition of human PRA -log IC50 M pH 7.4” value is on record as 5.21 -log M.

Still in this experiment, the particulars now being: human plasma pool rich in renin, 60 min at 37° C., phosphate buffer pH 7.4; -log IC50; listed as 41 151.
As for “Boc-Phe-(Pyr-2)Ala-Sta-Leu-Phe-OMe [SR 43151]”, the “Inhibition of human PRA -log IC50 M pH 7.4” value is reported as 6.66 -log M.

The experiment is the same for the next values; noted with them: read-out: Inhibition of human PRA -log IC50 M pH 7.4 (converted).
By IC50 is commonly meant the concentration that inhibits the measured activity by half. Turning to `COC(=O)C[C@H](O)[C@H](CC(C)C)NC(=O)[C@H](C)NC(=O)C[C@H](O)[C@H](CC(C)C)NC(=O)[C@@H](NC(=O)[C@H](Cc1ccccc1)NC(=O)OC(C)(C)C)c1ccccc1` [SR 42823, Boc--Phe--Phg--Sta--Ala--Sta--OMe] (Boc-F[Phg][Sta]A[Sta]-OMe), the IC50 was 93.3 nM.

As for `COC(=O)[C@H](CC(C)C)NC(=O)[C@H](C)NC(=O)C[C@H](O)[C@H](CC(C)C)NC(=O)[C@H](CC(=O)OCc1ccccc1)NC(=O)[C@H](Cc1ccccc1)NC(=O)OC(C)(C)C` [SR 42926, Boc-Phe-(PhCH2)Asp-Sta-Ala-Leu-OMe] (Boc-FD(OBn)[Sta]AL-OMe), the IC50 was 398 nM.

As for `COC(=O)[C@H](CC(C)C)NC(=O)[C@H](C)NC(=O)C[C@H](O)[C@H](CC(C)C)NC(=O)C(NC(=O)[C@H](Cc1ccccc1)NC(=O)OC(C)(C)C)c1csc(C)n1` (stereo partly drawn) [SR 43059, Boc-Phe-(2-methylthiazol-4-yl)Gly-Sta-Ala-Leu-OMe] (Boc-F[X10][Sta]AL-OMe), the IC50 is 3020 nM.

With `COC(=O)[C@H](Cc1ccccc1)NC(=O)[C@H](CC(C)C)NC(=O)C[C@H](O)[C@H](CC(C)C)NC(=O)C(Cc1cccnc1)NC(=O)[C@H](Cc1ccccc1)NC(=O)OC(C)(C)C` (stereo partly drawn) [SR 43064, Boc-Phe-(Pyr-3)Ala-Sta-Leu-Phe-OMe] (Boc-F[ξ3Pal][Sta]LF-OMe), the IC50 was 316 nM.

Take `COC(=O)[C@H](Cc1ccccc1)NC(=O)[C@H](CC(C)C)NC(=O)C[C@H](O)[C@H](CC(C)C)NC(=O)C(Cc1ccncc1)NC(=O)[C@H](Cc1ccccc1)NC(=O)OC(C)(C)C` (stereo partly drawn) [SR 43144, Boc-Phe-(Pyr-4)Ala-Sta-Leu-Phe-OMe] (Boc-F[ξ4Pal][Sta]LF-OMe): the IC50 was 1320 nM.

Turning to `COC(=O)C[C@H](O)[C@H](CC(C)C)NC(=O)[C@H](C)NC(=O)C[C@H](O)[C@H](CC(C)C)NC(=O)[C@H](COC(C)(C)C)NC(=O)[C@H](Cc1ccccc1)NC(=O)OC(C)(C)C` [SR 43297, Boc--Phe--((CH3)3 CO)Ser--Sta--Ala--Sta--OMe] (Boc-FS(tBu)[Sta]A[Sta]-OMe), the IC50 was 2140 nM.

Regarding `CCn1cnc(C[C@H](NC(=O)[C@H](Cc2ccccc2)NC(=O)OC(C)(C)C)C(=O)N[C@@H](CC(C)C)[C@@H](O)CC(=O)N[C@@H](C)C(=O)N[C@@H](CC(C)C)[C@@H](O)CC(=O)OC)c1` [SR 43391, Boc--Phe--(tauEt)His--Sta--Ala--Sta--OMe] (Boc-F[X9][Sta]A[Sta]-OMe), the IC50 was 64.6 nM.

Consider `COC(=O)C[C@H](O)[C@H](CC(C)C)NC(=O)[C@H](C)NC(=O)C[C@H](O)[C@H](CC(C)C)NC(=O)C(Cc1cccnc1)NC(=O)[C@H](Cc1ccccc1)NC(=O)OC(C)(C)C` (stereo partly drawn) [SR 43429, Boc-Phe-(Pyr-3)Ala-Sta-Ala-Sta-OMe] (Boc-F[ξ3Pal][Sta]A[Sta]-OMe), for which the IC50 was 417 nM.

On to `COC(=O)C[C@H](O)[C@H](CC(C)C)NC(=O)[C@H](C)NC(=O)C[C@H](O)[C@H](CC(C)C)NC(=O)[C@@H](NC(=O)[C@H](Cc1ccccc1)NC(=O)OC(C)(C)C)C1CCCC1` [SR 43554, Boc--Phe--Cpg--Sta--Ala--Sta--OMe] (Boc-F[Gly(cPent)][Sta]A[Sta]-OMe), for which the IC50 was 37.2 nM.

As to `COC(=O)C[C@H](O)[C@H](CC(C)C)NC(=O)[C@H](C)NC(=O)C[C@H](O)[C@H](CC(C)C)NC(=O)[C@H](COCc1ccccn1)NC(=O)[C@H](Cc1ccccc1)NC(=O)OC(C)(C)C` [SR 43555, Boc--Phe--((Pyr--2)CH2 O)Ser--Sta--Ala--Sta--OMe] (Boc-FS(X4)[Sta]A[Sta]-OMe), the IC50 is 316 nM.

As for `CC(C)CC(=O)N[C@@H](Cc1ccccc1)C(=O)N[C@@H](Cc1cn(C)cn1)C(=O)N[C@@H](CC(C)C)[C@@H](O)CC(=O)N[C@@H](C)C(=O)N[C@@H](CC(C)C)[C@@H](O)CC(=O)O` [SR 43761, iVa--Phe--(tauMe)His--Sta--Ala--Sta--OH] (Isovaleryl-F[His(τ-Me)][Sta]A[Sta]-OH), the IC50 was 151 nM.
